For orientation: IC50 means the midpoint of a concentration-inhibition curve.

The values below come from paper PMC8765435, “In Vitro Antimalarial Activity of Inhibitors of the Human GTPase Rac1” (Antimicrobial Agents and Chemotherapy, 2022).

The subject of experiment [1] is P. falciparum intraerythrocytic parasites. Briefly: Parasite intraerythrocytic growth (Giemsa smears). In kind it is cell-based, Plasmodium falciparum. The following applies: 1.4 μM. Here is the method:
A culture of erythrocytes freshly invaded by P. falciparum parasites was set up as previously described ([17]). Parasites were exposed to 1.4 μM EHop-016, and an untreated control was set up. Blood smears were taken at 20, 27, and 39 hpi, corresponding to late ring, trophozoite, and schizont stages, and then Giemsa stained and counted by optical microscopy in order to assess parasitemia. Pictures of the blood smears were taken with a Leica ICC50W camera. These experiments were performed in three biological replicates.

In experiment [2] the target is Rac1 (Homo sapiens, UniProt P63000). Briefly: G-LISA Rac1 activation assay in uninfected erythrocytes. The format is cell-based. Further details: endogenous in cells; host or cells: erythrocytes from whole blood of 7 donors. The following applies: 2.5 μM, 2 h. Here is the method: Whole blood collected from 7 donors was washed in RPMI 1640 four times to remove plasma, platelets, and leukocytes. The number of erythrocytes was determined by using a cell counting chamber. Erythrocytes were incubated for 2 h at 37°C with or without 2.5 μM EHop-016 and then washed. In each sample, the Rac1 activation state was measured with the G-LISA Rac1 activation assay luminescence-based biochemical kit (Cytoskeleton). Luminescence intensity was assessed with a BioTek Synergy HT plate reader. These experiments were performed in three biological replicates.

Experiment [3] concerns 3D7 immature gametocytes. Briefly: Gametocyte viability luminescence assay, immature gametocytes. The format is cell-based, Plasmodium falciparum. Particulars: Plasmodium falciparum, 3D7, stage II-III gametocytes, 72 h, read-out: Mean IC50 ± SD, 3D7 immature gametocytes. The protocol:
Chloroquine (CQ)-sensitive (D10, wild-type 3D7, or transgenic 3D7elo1-pfs16-CBG99) and CQ-resistant (W2) strains of P. falciparum were cultured as described previously ([58]), with slight modifications, as detailed in the supplemental material.
Asexual parasite growth was determined spectrophotometrically (optical density at 650 nm [OD650]) by measuring the activity of parasite lactate dehydrogenase (pLDH), according to a modified version of the method of Makler et al. ([59]). Gametocyte viability was measured by a luminescence method described previously ([60]). Details for the two methods are reported in the supplemental material. From either the OD or ALU (arbitrary luminescence units), the percentages of viability were calculated according to the formula 100 × (treated sample signal − blank signal)/(untreated control signal − blank signal). The blank for the pLDH assay was uninfected RBCs at the same hematocrit as that of parasitized RBCs, and the blank for the luminescence assay was parasites treated with a high dose of methylene blue. […]
strain (wild type or transgenic 3D7elo1-pfs16-CBG99 strain) was cultured in similar conditions, except for 10% naturally clotted Human O+ serum instead of AlbuMaxII and human type O-positive instead of A-positive RBCs. […]
in a standard gas mixture consisting of 1% O2, 5% CO2, 94% N2. Immature (stage II-III) and mature (stage V) gametocytes were obtained as described1. Briefly, cultures were diluted to 0.5% parasitemia at 5% HCT, and the medium was changed daily until parasites were stressed by nutrient deprivation. N-acetylglucosamine (NAG) (Sigma-Aldrich) 50 mM was then added to clear residual asexual parasites: Stage II and III gametocytes were obtained 4 days after NAG addition to the culture, while stage IV and V gametocytes were used 11 to 13 days from NAG addition. Gametocyte stages were routinely checked on Giemsa-stained smears. […]
Drug treated gametocyte cultures were transferred to 96-well black microplates and D-luciferin (1 mM in citrate buffer 0.1 M, pH 5.5) was added at a 1:1 volume ratio. Luminescence measurements were performed after 10 min with 500 ms integration time. Gametocytes treated

The test system of experiment [4] is P. falciparum invasion of red blood cells. Briefly: Parasite invasion assay. The format is cell-based, Plasmodium falciparum. Particulars: 2.5 μM. The protocol:
Invasion assays were performed as previously described ([17]). Invasion rates were calculated by subtracting the number of schizonts at the end of the assay (6 h postinvasion [hpi]) from the number of schizonts in the time zero (T0) sample, obtaining the number of merozoite-releasing schizonts. The number of new infections was normalized to the number of merozoite-releasing schizonts to obtain the parasitized erythrocyte multiplication rate (PEMR). This value was normalized to the control sample, obtaining the invasion rate value. The results are the means from three independent biological replicates, each performed in triplicate.

The subject of experiment [5] is HMEC-1 human microvascular endothelial cells. Briefly: Cell cytotoxicity MTT assay. In kind it is cell-based. Here is the method:
Cytotoxicity was evaluated on human microvascular endothelial cells (HMEC-1) as detailed in the supplemental material. […] Plates were then read on a microplate reader (Synergy 4; BioTek) at a wavelength of 550 nm (reference, 650 nm). […] All tests were performed in duplicate at least three times.
The selectivity index (SI) is the ratio between the cytotoxic IC50 value against HMEC-1 cells and the parasitic IC50 value against the D10 strain and indicates the compound selectivity for the parasite.
Cytotoxicity was evaluated on Human Microvascular Endothelial Cells (HMEC-1) maintained
and 2 mM L-glutamine. Cells were seeded in 96 well flat bottom tissue culture clusters (1.5x104
cells/well), let adhere overnight and treated with serial dilutions of test compounds . […]

On to `CCn1c2ccccc2c2cc(Nc3ccnc(NCCCN4CCOCC4)n3)ccc21` [EHop-016], for which the “parasitemia compared to untreated control” value in experiment [1] (20, 27 and 39 hpi) is on record as “significant, time-dependent reduction in parasitemia”. For the same compound, the parasite developmental process result in experiment [1] (up to 39 hpi) is “complete block of the developmental process”. In experiment [2], the “levels of active Rac1 in noninfected erythrocytes” value is on record as “does not inhibit Rac1 in noninfected erythrocytes”. The IC50 in experiment [3] was 740 ± 200 nM; in experiment [5] (Homo sapiens, HMEC-1, MTT, 72 h, read-out: Mean HMEC-1 IC50 ± SD), 5220 ± 1070 nM. The “RBC invasion efficiency (invasion rate vs untreated control)” value in experiment [4] was “did not reduce the RBC invasion efficiency”. The “SI (selectivity index)” value in experiment [5] (ratio IC50 against HMEC-1 cells / IC50 against D10 asexual parasites) is recorded as 37.8.
